Measured values from patent US6407094B1, “Glutamate receptor antagonists” (Hoffmann-la Roche Inc., priority 1999, dated 2002).

SMILES | melting point
Cc1cc2c(cc1C#Cc1ccccc1)NC(=O)CC(c1cccc(C#N)c1)=N2 [Example 4, 3-(8-Methyl-4-oxo-7-phenylethynyl-4,5-dihydro-3H-benzo[b][1,4]diazepin-2-yl)-benzonitrile] | 237 to 239 °C (dec.)
CN1CCN(c2cc3c(cc2C#Cc2ccccc2)NC(=O)CC(c2cccc(C#N)c2)=N3)CC1 [Example 5, 3-[8-(4-Methyl-piperazin-1-yl)-4-oxo-7-phenylethynyl-4,5-dihydro-3H-benzo[b][1,4]diazepin-2-yl]-benzonitrile] | 222 to 224 °C (dec.)
N#Cc1cccc(C2=Nc3cc(N4CCS(=O)(=O)CC4)c(C#Cc4ccccc4)cc3NC(=O)C2)c1 [Example 6, 3-[8-(1,1-Dioxo-thiomorpholin-4-yl)-4-oxo-7-phenylethynyl-4,5-dihydro-3H-benzo[b][1,4]diazepin-2-yl]-benzonitrile] | > 250 °C (dec.)
N#Cc1cccc(C2=Nc3cc(N4CCC5(CC4)OCCO5)c(C#Cc4ccccc4)cc3NC(=O)C2)c1 [Example 9, 3-[8-(1,4-Dioxa-8-aza-spiro[4.5]dec-8-yl)-4-oxo-7-phenylethynyl-4,5-dihydro-3H-benzo[b][1,4]diazepin-2-yl]-benzonitrile] | 239 to 243 °C (dec.)
CN(C)CCSc1cc2c(cc1C#Cc1ccccc1)NC(=O)CC(c1cccc(C#N)c1)=N2 [Example 11, 3-[8-(2-Dimethylamino-ethylsulfanyl)-4-oxo-7-phenylethynyl-4,5-dihydro-3H-benzo[b][1,4]diazepin-2-yl]-benzonitrile] | 197 °C (dec.)
N#Cc1cccc(C2=Nc3cc(SCC(=O)O)c(C#Cc4ccccc4)cc3NC(=O)C2)c1 [Example 13, [4-(3-Cyano-phenyl)-2-oxo-8-phenylethynyl-2,3-dihydro-1H-benzo[b][1,4]diazepin-7-ylsulfanyl]-acetic acid] | 202 °C (dec.)
COC(=O)Cc1cc2c(cc1C#Cc1ccccc1)NC(=O)CC(c1cccc(C#N)c1)=N2 [Example 14, [4-(3-Cyano-phenyl)-2-oxo-8-phenylethynyl-2,3-dihydro-1H-benzo[b][1,4]diazepin-7-yl]-acetic acid methyl ester] | 236 °C (dec.)
COCCOc1cc2c(cc1C#Cc1ccccc1)NC(=O)CC(c1cccc(C#N)c1)=N2 [Example 18, 3-[8-(2-Methoxy-ethoxy)-4-oxo-7-phenylethynyl-4,5-dihydro-3H-benzo[b][1,4]diazepin-2-yl]-benzonitrile] | 174 to 176 °C
COC(=O)c1cc2c(cc1C#Cc1ccccc1)NC(=O)CC(c1cccc(C#N)c1)=N2 [Example 19, 4-(3-Cyano-phenyl)-2-oxo-8-phenylethynyl-2,3-dihydro-1H-benzo[b][1,4]diazepine-7-carboxylic acid methyl ester] | > 250 °C
N#Cc1cccc(C2=Nc3cc(OCC(=O)O)c(C#Cc4ccccc4)cc3NC(=O)C2)c1 [Example 22, [4-(3-Cyano-phenyl)-2-oxo-8-phenylethynyl-2,3-dihydro-1H-benzo[b][1,4]diazepin-7-yloxy]-acetic acid] | 257 °C (dec.)
N#Cc1cccc(C2=Nc3cc(OCC(O)CO)c(C#Cc4ccccc4)cc3NC(=O)C2)c1 (stereo not drawn) [Example 24, 3-[8-(2,3-Dihydroxy-propoxy)-4-oxo-7-phenylethynyl-4,5-dihydro-3H-benzo[b][1,4]diazepin-2-yl]-benzonitrile] | 230 to 234 °C (dec.)
CCOCc1cc2c(cc1C#Cc1ccccc1)NC(=O)CC(c1cccc(C#N)c1)=N2 [Example 29, 3-(8-Ethoxymethyl-4-oxo-7-phenylethynyl-4,5-dihydro-3H-benzo [b][1,4]diazepin-2-yl)-benzonitrile] | 229 °C
CC(C)(C)C(=O)OCc1cc2c(cc1C#Cc1ccccc1)NC(=O)CC(c1cccc(C#N)c1)=N2 [Example 30, 2,2-Dimethyl-propionic acid 4-(3-cyano-phenyl)-2-oxo-8-phenylethynyl-2,3-dihydro-1H-benzo[b][1,4]diazepin-7-ylmethyl ester] | 218 °C
N#Cc1cccc(C2=Nc3cc(CO)c(C#Cc4ccccc4)cc3NC(=O)C2)c1 [Example 31, 3-(8-Hydroxymethyl-4-oxo-7-phenylethynyl-4,5-dihydro-3H-benzo[b][1,4]diazepin-2-yl)-benzonitrile] | > 255 °C
COC1CCN(c2cc3c(cc2C#Cc2ccccc2)NC(=O)CC(c2cccc(-n4ccnc4)c2)=N3)CC1 [Example 33, 4-(3-Imidazol-1-yl-phenyl)-7-(4-methoxy-piperidin-1-yl)-8-phenylethynyl-1,3-dihydro-benzo[b][1,4]diazepin-2-one] | 222 °C
COC1CCN(c2cc3c(cc2C#Cc2ccccc2)NC(=O)CC(c2cccc(C#N)c2)=N3)CC1 [Example 34, 3-[8-(4-Methoxy-piperidin-1-yl)-4-oxo-7-phenylethynyl-4,5-dihydro-3H-benzo[b][1,4]diazepin-2-yl]-benzonitrile] | 250 to 251 °C
N#CCOc1cc2c(cc1C#Cc1ccccc1)NC(=O)CC(c1cccc(-n3ccnc3)c1)=N2 [Example 35, [4-(3-Imidazol-1-yl-phenyl)-2-oxo-8-phenylethynyl-2,3-dihydro-1H-benzo[b][1,4]diazepin-7-yloxy]-acetonitrile] | 214 °C
N#CCOc1cc2c(cc1C#Cc1ccccc1)NC(=O)CC(c1cccc(C#N)c1)=N2 [Example 36, 3-(8-Cyanomethoxy-4-oxo-7-phenylethynyl-4,5-dihydro-3H-benzo[b][1,4]diazepin-2-yl)-benzonitrile] | 212 °C
CN(CCO)c1cc2c(cc1C#Cc1ccc(F)cc1)NC(=O)CC(c1cccc(-n3ccnc3)c1)=N2 [Example 38, 8-(4-Fluoro-phenylethynyl)-7-[(2-hydroxy-ethyl)-methyl-amino]-4-(3-imidazol-1-yl-phenyl)-1,3-dihydro-benzo[b][1,4]diazepin-2-one] | 217 °C (dec.)
O=C1CCN(c2cc3c(cc2C#Cc2ccccc2)NC(=O)CC(c2cccc(-n4ccnc4)c2)=N3)CC1 [Example 39, 4-(3-Imidazol-1-yl-phenyl)-7-(4-oxo-piperidin-1-yl)-8-phenylethynyl-1,3-dihydro-benzo[b][1,4]diazepin-2-one] | 231 °C (dec.)

Now from value to compound:

melting point | SMILES
> 250 °C | CC(C)(C)NC(=O)COc1cc2c(cc1C#Cc1ccccc1)NC(=O)CC(c1cccc(C#N)c1)=N2 [Example 40, N-tert.-Butyl-2-[4-(3-cyano-phenyl)-2-oxo-8-phenylethynyl-2,3-dihydro-1H-benzo[b][1,4]diazepin-7-yloxy]-acetamide]
> 250 °C | CONC(=O)COc1cc2c(cc1C#Cc1ccccc1)NC(=O)CC(c1cccc(C#N)c1)=N2 [Example 41, 2-[4-(3-Cyano-phenyl)-2-oxo-8-phenylethynyl-2,3-dihydro-1H-benzo[b][1,4]diazepin-7-yloxy]-N-methoxy-acetamide]
238 to 240 °C | O=C1CC(c2cccc(-n3ccnc3)c2)=Nc2cc(N3CCC(O)CC3)c(-c3ccc(F)cc3)cc2N1 [Example 43, 8-(4-Fluoro-phenyl)-7-(4-hydroxy-piperidin-1-yl)-4-(3-imidazol-1-yl-phenyl)-1,3-dihydro-benzo[b][1,4]diazepin-2-one]
220 to 222 °C | O=C1CC(c2cccc(-n3ccnc3)c2)=Nc2cc(OCCO)c(C#Cc3ccc(F)cc3)cc2N1 [Example 44, 8-(4-Fluoro-phenylethynyl)-7-(2-hydroxy-ethoxy)-4-(3-imidazol-1-yl-phenyl)-1,3-dihydro-benzo[b][1,4]diazepin-2-one]
180 to 195 °C | O=C1CC(c2cccc(-n3ccnc3)c2)=Nc2cc(CO)c(-c3ccc(F)cc3)cc2N1 [Example 46, 8-(4-Fluoro-phenyl)-7-hydroxymethyl-4-(3-imidazol-1-yl-phenyl)-1,3-dihydro-benzo[b][1,4]diazepin-2-one]
164 °C | N#CCOc1cc2c(cc1-c1ccc(F)cc1)NC(=O)CC(c1cccc(-n3ccnc3)c1)=N2 [Example 47, [8-(4-Fluoro-phenyl)-4-(3-imidazol-1-yl-phenyl)-2-oxo-2,3-dihydro-1H-benzo[b][1,4]diazepin-7-yloxy]-acetonitrile]
115 to 140 °C (dec.) | CN(C)Cc1cc2c(cc1-c1ccc(F)cc1)NC(=O)CC(c1cccc(-n3ccnc3)c1)=N2 [Example 48, 7-Dimethylaminomethyl-8-(4-fluoro-phenyl)-4-(3-imidazol-1-yl-phenyl)-1,3-dihydro-benzo[b][1,4]diazepin-2-one]
240 °C (dec.) | CC1(C)OC2CN(c3cc4c(cc3-c3ccc(F)cc3)NC(=O)CC(c3cccc(-n5ccnc5)c3)=N4)CC2O1 (stereo not drawn) [Example 49, 7-(2,2-Dimethyl-tetrahydro-[1,3]dioxolo [4,5-c]pyrrol-5-yl)-8-(4-fluoro-phenyl)-4-(3-imidazol-1-yl-phenyl)-1,3-dihydro-benzo[b][1,4]diazepin-2-one]
244 °C | O=C1CC(c2cccc(-n3ccnc3)c2)=Nc2cc(N3C[C@@H](O)[C@@H](O)C3)c(-c3ccc(F)cc3)cc2N1 [Example 50, 7-(cis-3,4-Dihydroxy-pyrrolidin-1-yl)-8-(4-fluoro-phenyl)-4-(3-imidazol-1-yl-phenyl)-1,3-dihydro-benzo[b][1,4]diazepin-2-one]
221 °C (dec.) | COc1cc2c(cc1-c1ccc(F)cc1)NC(=O)CC(c1cccc(-n3ccnc3)c1)=N2 [Example 51, 8-(4-Fluoro-phenyl)-4-(3-imidazol-1-yl-phenyl)-7-methoxy-1,3-dihydro-benzo[b][1,4]diazepin-2-one]
204 °C | O=C1CCN(c2cc3c(cc2-c2ccc(F)cc2)NC(=O)CC(c2cccc(-n4ccnc4)c2)=N3)CC1 [Example 52, 8-(4-Fluoro-phenyl)-4-(3-imidazol-1-yl-phenyl)-7-(4-oxo-piperidin-1-yl)-1,3-dihydro-benzo[b][1,4]diazepin-2-one]
196 °C | Cc1cc2c(cc1-c1ccc(F)cc1)NC(=O)CC(c1cccc(-n3ccnc3)c1)=N2 [Example 53, 8-(4-Fluoro-phenyl)-4-(3-imidazol-1-yl-phenyl)-7-methyl-1,3-dihydro-benzo[b][1,4]diazepin-2-one]
209 to 211 °C | O=C1CC(c2cccc(-n3ccnc3)c2)=Nc2cc(Cl)c(-c3ccc(F)cc3)cc2N1 [Example 56, 7-Chloro-8-(4-fluoro-phenyl)-4-(3-imidazol-1-yl-phenyl)-1,3-dihydro-benzo[b][1,4]diazepin-2-one]
